Test results published in patent US8709406B2, “Prevention and treatment of oxidative stress disorders by gluthathione and phase II detoxification enzymes” (Brassica Foundation for ChemoProtection Research, priority 2001, dated 2014).
Where two headings read alike, the source gives them in different places.

Assays:
L1210 cells = experiment: Menadione cytotoxicity (MTT, median effect analysis) and protection by sulforaphane; assay type: cell-based, mouse; conditions: menadione 2 h
Protocol: Mouse L1210 leukemia cells, a gift from Dr. Joseph G. Cory, East Carolina State University, Greenville, N.C., were grown in RPMI 1640 medium supplemented with 10% horse serum. All cultures were incubated in a humidified atmosphere of 5% CO2 at 37° C. Media and sera were obtained from Life Technologies (Rockville, Md.).
(§1) All experiments were performed in 96-well microliter plates. ARPE-19 and HaCaT cells were seeded at 10,000 cells per well and grown for 24 h before addition of sulforaphane, whereas L1210 cells (5,000 cells/well) were not incubated before sulforaphane treatment. Solutions of sulforaphane (5 mM) in dimethyl sulfoxide were diluted with the cognate culture medium to provide final inducer concentrations of 0.16-5.0 μM. The final DMSO concentrations were 0.1% by volume.
(§2) Cell viability was determined by spectroscopic measurement of the reduction of MTT (Carmichael, J., DeGraff, W. G., Gazdar, A. F., Minna, J. D. & Mitchell, J. B. (1987) Cancer Res. 47, 936-942). The culture media were discarded after the designated incubation periods, the cells were washed three times with PBS by use of a microtiter plate washer (Ultrawash Plus, Dynex Technologies, Chantilly, Va.). Each well then received 150 μl of an MTT solution (0.5 mg/ml) in serum-free medium. The plates were incubated for 2 h at 37° C., the MTT solution was discarded, 100 μl of DMSO were added to each well, and the plates were shaken at 200 rpm on an orbital shaker for 5 min. The absorbances of the wells were determined at 555 nm with a microtiter plate reader (Spectra Max Plus, Molecular Devices, Sunnyvale, Calif.). The absorbance of reduced MIT was then compared at each inducer and oxidant concentration to that of untreated control cells that received only the vehicle in which sulforaphane (DMSO) and menadione (DMSO or PBS) were dissolved. In each experiment three identical 96-well plates were used and the means of the absorbance values, the standard deviations of these means, and their coefficients of variation were calculated.
(§3) Dose-effect analyses were performed according to the Median Effect Equation, by use of a computer program (Chou, T. C. & Hayball, M. (1996) CalcuSyn for Windows 3.1 and 95: multiple dose effect analyzer and manual for IBM-PC, Biosoft, Cambridge, U.K). The equation: fa/fu=[D/Dm]^m, where fa is the fraction of cells affected by the oxidant, fu is the fraction unaffected (i.e., 1-fa), D is the dose of oxidant required to produce the effect fa, Dm is the concentration of oxidant required to produce a 50% effect, i.e., when fa=fu, and the slope m is a measure of the sigmoidicity of the dose-response curve, and is therefore a measure of cooperativity. The results are analyzed by plotting log(fa/fu) with respect to log D of the oxidant. The computer program provides the slope (m) of the curves, and the goodness of fit (r^2) to linearity.

ARPE-19 cells = experiment: Oxidant cytotoxicity (MTT viability, median effect analysis) and protection by 24 h sulforaphane pretreatment; assay type: cell-based, human; conditions: ARPE-19; for Dm of menadione: Example 3; for Dm of menadione / Dm (median effect concentration) of menadione / m (slope of median effect plot) for menadione: menadione 2 h; for Dm (median effect concentration) of tert-butyl hydroperoxide / m (slope of median effect plot) for tert-butyl hydroperoxide: tert-butyl hydroperoxide 16 h
Protocol: as §1
Tert-Butyl hydroperoxide (1 M) and 4-hydroxynonenal (25 mM) were dissolved in DMSO and diluted 1000-fold with serum-free medium before addition of serial dilutions to the microtiter plate wells. The final concentrations of DMSO were therefore less than 0.1% (by vol.). Menadione sodium bisulfite (0.5 M) and SIN-1 (0.5 M) were dissolved and added in PBS. ARPE-19 cells were exposed to menadione for 2 h and to tert-butyl hydroperoxide for 16 h, washed with PBS, and cell viability was determined by the MIT test. ARPE-19 cells were exposed to peroxynitrite for 2 h and 4-hydroxynonenal for 4 h, and the cells were then incubated in serum-free media for 22 and 20 h, respectively, washed with PBS, and cell viability was determined. The additional incubation periods were required for peroxynitrite and 4-hydroxynonenal to evoke maximal cytotoxicity.
as §2, §3

glutathione = conditions: ARPE-19
Protocol: Cells were lysed by addition of a digitonin solution (0.8 mg/ml digitonin in 2 mM EDTA, pH 7.8), incubated at 37° C. for 20 min, gently shaken for 20 min at 25° C., and centrifuged at 1,500×g for 20 min at 4° C.
Total glutathione (oxidized and reduced) was determined by reduction of 5,5′-dithiobis-2-nitrobenzoic acid (DTNB) in a glutathione reductase-coupled assay in 96-well microliter plates (Ritchie, J. P., Jr., Skowronski, L., Abraham, P. & Leutzinger, Y. (1996) Clin. Chem. 42, 64-70). Briefly, 30 μl of lysates were mixed with 60 μl of cold 2.5% metaphosphoric acid, stored at 4° C. for 10 min, and centrifuged for 20 min at 1,500×g at 4° C. […] After 5 min incubation at 25° C., 50 μl of 0.72 mM NADPH were added to each well, and the initial reaction rates were determined at 412 nm. Calibration curves for pure GSH were included in each assay.

[1] = after sulforaphane 0.16 μM 24 h
[2] = after sulforaphane 0.31 μM 24 h
[3] = after sulforaphane 0.63 μM 24 h
[4] = after sulforaphane 1.25 μM 24 h
[5] = after sulforaphane 2.50 μM 24 h
[6] = after sulforaphane 5.00 μM 24 h

With C[S+]([O-])CCCCN=C=S (centres unmarked) [Sulforaphane] as the molecule, how does the “Dm (median effect concentration) of menadione” value (L1210 cells; [1]) read?
The value was 19.6 µM.

What about the “m (slope of median effect plot) for menadione” value (L1210 cells; [1]) of the same molecule?
The value was 0.864.

What about the “Dm (median effect concentration) of menadione” value (L1210 cells; [2]) of the same molecule?
Its value is 26.5 µM.

What about the “m (slope of median effect plot) for menadione” value (L1210 cells; [2]) of the same molecule?
The value was 1.00.

What about the “Dm (median effect concentration) of menadione” value (L1210 cells; [3]) of the same molecule?
Its value is 36.2 µM.

And the “m (slope of median effect plot) for menadione” value (L1210 cells; [3])?
The value was 1.17.

What about the “m (slope of median effect plot) for 4-hydroxynonenal” value (ARPE-19 cells; 4-hydroxynonenal 4 h, after sulforaphane 0.63 μM 24 h) of the same molecule?
The value was 2.51.

What about the EC50 (ARPE-19 cells; 4-hydroxynonenal 4 h, after sulforaphane 0.63 μM 24 h, read-out: Dm (median effect concentration) of 4-hydroxynonenal) of the same molecule?
The EC50 was 14.1 µM.

And the “m (slope of median effect plot) for 4-hydroxynonenal” value (ARPE-19 cells; 4-hydroxynonenal 4 h, after sulforaphane 1.25 μM 24 h)?
The value was 2.78.

And the EC50 (ARPE-19 cells; 4-hydroxynonenal 4 h, after sulforaphane 1.25 μM 24 h, read-out: Dm (median effect concentration) of 4-hydroxynonenal)?
Its EC50 is 25.8 µM.

What about the “m (slope of median effect plot) for 4-hydroxynonenal” value (ARPE-19 cells; 4-hydroxynonenal 4 h, after sulforaphane 2.50 μM 24 h) of the same molecule?
The value was 2.51.

And the EC50 (ARPE-19 cells; 4-hydroxynonenal 4 h, after sulforaphane 2.50 μM 24 h, read-out: Dm (median effect concentration) of 4-hydroxynonenal)?
Its EC50 is 26.8 µM.

And the Dm of menadione (ARPE-19 cells; after sulforaphane 0.625 μM 24 h)?
The Dm of menadione was 69.2 µM.

What about the Dm of menadione (ARPE-19 cells; after sulforaphane 2.5 μM 24 h) of the same molecule?
Its Dm of menadione is 94.5 µM.

And the “degree of protection against different oxidants” value (ARPE-19 cells; comparable concentrations of sulforaphane)?
Its value is 2- to 3 fold.

And the “Dm (median effect concentration) of menadione” value (ARPE-19 cells; [3])?
Its value is 98.6 µM.

And the “m (slope of median effect plot) for menadione” value (ARPE-19 cells; [3])?
The value was 3.69.

What about the “Dm (median effect concentration) of menadione” value (ARPE-19 cells; [4]) of the same molecule?
The value was 110 µM.

And the “m (slope of median effect plot) for menadione” value (ARPE-19 cells; [4])?
The value was 3.49.

What about the “Dm (median effect concentration) of menadione” value (ARPE-19 cells; after sulforaphane 1.25 μM 24 h, listed as sulforaphane) of the same molecule?
The value was 109.9 µM.

What about the “Dm (median effect concentration) of menadione” value (ARPE-19 cells; [5]) of the same molecule?
The value was 123 µM.

What about the “m (slope of median effect plot) for menadione” value (ARPE-19 cells; [5]) of the same molecule?
Its value is 3.58.

And the “Dm (median effect concentration) of menadione” value (ARPE-19 cells; after sulforaphane 2.50 μM 24 h, listed as sulforaphane)?
Its value is 122.9 µM.

What about the “Dm (median effect concentration) of menadione” value (ARPE-19 cells; [6]) of the same molecule?
Its value is 134 µM.

What about the “m (slope of median effect plot) for menadione” value (ARPE-19 cells; [6]) of the same molecule?
The value was 3.12.

What about the “Dm (median effect concentration) of menadione” value (ARPE-19 cells; after sulforaphane 5.00 μM 24 h, listed as sulforaphane) of the same molecule?
Its value is 134.2 µM.

What about the “m (slope of median effect plot) for peroxynitrite” value (ARPE-19 cells; peroxynitrite (from SIN-1) 2 h, after sulforaphane 0.63 μM 24 h) of the same molecule?
The value was 6.30.

And the EC50 (ARPE-19 cells; peroxynitrite (from SIN-1) 2 h, after sulforaphane 0.63 μM 24 h, read-out: Dm (median effect concentration) of peroxynitrite)?
Its EC50 is 2780 µM.

What about the “m (slope of median effect plot) for peroxynitrite” value (ARPE-19 cells; peroxynitrite (from SIN-1) 2 h, after sulforaphane 1.25 μM 24 h) of the same molecule?
Its value is 6.19.

What about the EC50 (ARPE-19 cells; peroxynitrite (from SIN-1) 2 h, after sulforaphane 1.25 μM 24 h, read-out: Dm (median effect concentration) of peroxynitrite) of the same molecule?
Its EC50 is 2820 µM.

And the “m (slope of median effect plot) for peroxynitrite” value (ARPE-19 cells; peroxynitrite (from SIN-1) 2 h, after sulforaphane 2.50 μM 24 h)?
Its value is 6.62.

What about the EC50 (ARPE-19 cells; peroxynitrite (from SIN-1) 2 h, after sulforaphane 2.50 μM 24 h, read-out: Dm (median effect concentration) of peroxynitrite) of the same molecule?
The EC50 was 2890 µM.

What about the “time for which protection against menadione toxicity is maintained or exceeded after 24-h induction” value (ARPE-19 cells; sulforaphane 0.625 and 2.5 μM 24 h, then serum-free culture) of the same molecule?
The value was “at least 3 days”.

And the “Dm (median effect concentration) of tert-butyl hydroperoxide” value (“Dm … of tert-butyl hydroperoxide” below) (ARPE-19 cells; [3])?
The value was 140 µM.

And the “m (slope of median effect plot) for tert-butyl hydroperoxide” value (ARPE-19 cells; [3])?
Its value is 2.17.

And the “Dm … of tert-butyl hydroperoxide” value (ARPE-19 cells; [4])?
The value was 163 µM.

And the “m (slope of median effect plot) for tert-butyl hydroperoxide” value (ARPE-19 cells; [4])?
The value was 1.79.

What about the “Dm … of tert-butyl hydroperoxide” value (ARPE-19 cells; [5]) of the same molecule?
The value was 165 µM.

What about the “m (slope of median effect plot) for tert-butyl hydroperoxide” value (ARPE-19 cells; [5]) of the same molecule?
Its value is 1.26.

And the “concentrations of GSH in cytosols” value (glutathione; sulforaphane 0-5.0 μM 24 h)?
Its value is “rose with exposure to increasing concentrations of sulforaphane”.

And the “increase of GSH levels” value (glutathione; sulforaphane 2.5 μM 24 h)?
Its value is “about 50%”.
